Measured values published in patent US20190350930A1, “COMPOSITION FOR CONTROLLING GASTROESOPHAGEAL REFLUX DISEASES” (bitop AG, priority 2016, published 2019).

System: mucus-forming epithelial cells TR146
Experiment: in vitro cell culture model: TR146 cells damaged with acidic HCl/pepsin solution, then incubated with ectoine; cell count by neutral red cytotoxicity assay
Type: cell-based
Settings: FIG. 1
Protocol: The cells were treated with acid solutions containing the digestive enzyme pepsin and following this treated with ectoine. TR146 cells were added to a microplate having 96 wells, with the cells being allowed to grow until the surface was almost completely covered. The cells were then treated for 10 min. with a diluted acidic HCl solution together with pepsin in a cell culture medium. The concentration of pepsin was 2 U/ml. Following this, the cells were washed with PBS (phosphate buffered saline) and incubated overnight either with ectoine or for control purposes with pure solvent. After incubation, a cell count determination was carried out using a […] for which a cyanine-based nucleic acid dye was employed. The assay is based on the fact that the plasma membrane of damaged or dead cells becomes permeable to the dye and the dye binds to the DNA of the cell, which is associated with a corresponding increase in fluorescence. For […] control, cells were treated with 0.1% sodium dodecyl sulfate (SDS) solution as denaturing agent. Other cells (full medium) were not treated with acid/pepsin.

`CC1=NCC[C@@H](C(=O)O)N1` (stereo in doubt) [ectoine, 2-methyl-1,4,5,6-tetrahydropyrimidine-4-carboxylic acid] was tested. Which “effect with respect to the regeneration of the cells” value (50 mM ectoine, overnight incubation after 10 min acidic HCl solution with pepsin 2 U/ml) did it give?
The value was “excellent effect”.

What about the cell viability (cells treated with ectoine (50 mM) after acid/pepsin, compared with full-medium cells not treated with acid/pepsin) of the same molecule?
Its cell viability is “comparable to that of cells that were not subjected to a treatment with an acidic pepsin solution”.
